Like-named read-outs stand apart in the source and are kept apart here.
Tests used:
[1] = fenbufen analogs, Child, et al.; cited from earlier work
[2] = target: T1, Human Recombinant Gelatinase A (MMP-2) (Homo sapiens, UniProt P08253); assay: P218 quenched fluorescence (microfluorometric profiling) assay, MMP-2; format: biochemical
T1 sequence (P08253 110-660): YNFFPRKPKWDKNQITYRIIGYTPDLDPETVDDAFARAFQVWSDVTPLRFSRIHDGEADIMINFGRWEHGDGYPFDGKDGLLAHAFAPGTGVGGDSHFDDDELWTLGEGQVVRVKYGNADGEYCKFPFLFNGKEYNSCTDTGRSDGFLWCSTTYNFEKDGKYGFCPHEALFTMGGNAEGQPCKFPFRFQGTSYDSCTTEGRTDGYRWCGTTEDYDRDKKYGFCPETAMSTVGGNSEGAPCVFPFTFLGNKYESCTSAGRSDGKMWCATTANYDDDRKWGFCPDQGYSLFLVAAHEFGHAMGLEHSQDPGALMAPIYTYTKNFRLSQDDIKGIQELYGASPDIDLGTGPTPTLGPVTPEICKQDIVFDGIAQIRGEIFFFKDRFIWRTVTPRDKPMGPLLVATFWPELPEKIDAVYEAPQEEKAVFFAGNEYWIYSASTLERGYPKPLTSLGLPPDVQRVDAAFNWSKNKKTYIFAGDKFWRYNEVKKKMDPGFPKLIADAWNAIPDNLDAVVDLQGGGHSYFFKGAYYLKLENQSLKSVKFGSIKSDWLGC

[3] = target: T2, Recombinant Human CHO Stromelysin (MMP-3) (Homo sapiens, UniProt P08254); assay: P218 quenched fluorescence (microfluorometric profiling) assay, MMP-3; format: biochemical
T2 construct: made in house; host or cells: CHO cells
Description: P218 is a synthetic substrate containing a 4-acetyl-7-methoxycoumarin (MCA) group in the N-terminal position and a 3-[2, 4-dinitrophenyl]-L-2,3-diaminopropionyl (DPA) group internally.
The reaction was stopped by addition of soybean trypsin inhibitor (SBTI; 5:1 w/w to trypsin concentration). This activation protocol results in the formation of 45 kDa active MMP-3, which still contains the C-terminal portion of the enzyme.
Microfluorometric Reaction Buffer (MRB): Dilution of test compounds, enzymes, and P218 substrate for the microfluorometric assay were made in microfluorometric reaction buffer consisting of 50 mM 2-(N-morpholino)ethanesulfonic acid (MES) at pH 6.5 with 10 mM CaCl2, 150 mM NaCl, 0.005% Brij-35 and 1% DMSO.
MMP Microfluorometric Profiling Assay. The assay is done with a final substrate concentration of 6 μM P218 and approximately 0.5 to 0.8 nM MMP with variable drug concentrations. The Hamilton is programmed to serially dilute up to 11 compounds from a 2.5 mM stock (100% DMSO) to 10× the final compounds concentrations in the assay. Initially, the instrument delivers various amounts of microfluoromentric reaction buffer (MRB) to a 96 tube rack of 1 ml Marsh dilution tubes. The instrument then picks up 20 μl of inhibitor (2.5 mM) from the sample rack and mixes it with a buffer in row A of the Marsh rack, resulting in a 50 μM drug concentration. The inhibitors are then serially diluted to 10, 5, 1, 0.2, 0.05 and 0.01 μM. […] The instrument re-mixes and loads 14.5 μl of diluted compound from rows A to G in the Marsh rack to corresponding rows in the microtiter plate. (Row H represents the "background" row and 39.5 μl of MRB is delivered in placed of drug or enzyme). […] (The enzyme reservoir is pretreated with 1% BSA in 50 mM Tris, pH 7.5 containing 150 mM NaCl for 1 hour at room temp., followed by extensive H2 O washing and drying at room temp.).
IC50 and Ki Determination in Microfluorometric Assay: Data generated on the Cytofluor II is copied from an exported ".CSV" file to a master Excel spreadsheet. Data from several different MMPs (one 96 well plate per MMP) were calculated simultaneously. The percent inhibition is determination for each drug concentration by comparing the amount of hydrolysis (fluorescence units generated over 25 minutes of hydrolysis) of wells containing compound with the "enzyme only" wells in column 1.

[4] = target: T3, Human Recombinant Gelatinase B (MMP-9) (Homo sapiens, UniProt P14780); assay: P218 quenched fluorescence (microfluorometric profiling) assay, MMP-9; format: biochemical
T3 construct: made in house
Description: The assay was run with each invention compound and the three MMPs, Mmp-3, MMP-9 and MMP-2, analyzed in parallel, adapted as follows for a 96-well microtiter plate and a Hamilton AT® workstation. […] P218 is currently being produced BACHEM exclusively for Bayer. P218 has the structure: […] The enzyme was dialyzed against the same buffer to remove the APMA. Hamiltion Microlab AT Plus: The MMP-Profiling Assay is performed robotically on a Hamilton MicroLab AT Plus®. The Hamilton is programmed to: (1) serially dilute up to 11 potential inhibitors automatically from a 2.5 mM stock in 100% DMSO; (2) distribute substrate followed by inhibitor into a 96 well Cytofluor plate; and (3) add a single enzyme to the plate with mixing to start the reaction. Subsequent plates for each additional enzyme are prepared automatically by beginning the program at the substrate addition point, remixing the diluted inhibitors and beginning the reaction by addition of enzyme. In this way, all MMP assays were done using the same inhibitor dilutions. Millipore Cytofluor II. […] MMP Microfluorometric Profiling Assay. […] The Hamilton is programmed to serially dilute up to 11 compounds from a 2.5 mM stock (100% DMSO) to 10× the final compounds concentrations in the assay. Initially, the instrument delivers various amounts of microfluoromentric reaction buffer (MRB) to a 96 tube rack of 1 ml Marsh dilution tubes. The instrument then picks up 20 μl of inhibitor (2.5 mM) from the sample rack and mixes it with a buffer in row A of the Marsh rack, resulting in a 50 μM drug concentration. The inhibitors are then serially diluted to 10, 5, 1, 0.2, 0.05 and 0.01 μM. […] The instrument re-mixes and loads 14.5 μl of diluted compound from rows A to G in the Marsh rack to corresponding rows in the microtiter plate. (Row H represents the "background" row and 39.5 μl of MRB is delivered in placed of drug or enzyme). […] After addition and mixing of the enzyme, the plate is covered and incubated for 25 min. at 37° C. Additional enzymes are tested in the same manner by beginning the Hamilton program with the distribution of P218 substrate to the microtiter plate, followed by re-mixing and distribution of the drug from the same Marsh rack to the microtiter plate. The second (or third, etc.) MMP to be tested is then distributed from a reagent rack to the microtiter plate with mixing, prior to covering and incubation. This is repeated for all additional MMP's to be tested. IC50 and Ki Determination in Microfluorometric Assay: Data generated on the Cytofluor II is copied from an exported ".CSV" file to a master Excel spreadsheet. […] The percent inhibition is determination for each drug concentration by comparing the amount of hydrolysis (fluorescence units generated over 25 minutes of hydrolysis) of wells containing compound with the "enzyme only" wells in column 1. Following subtraction of the background the percent inhibition was calculated as: ((Control values-Treated values)/Control values)×100 Percent inhibitions were determined for inhibitor concentrations of 5, 1, 0.5, 0.1, 0.02, 0.005 and, 0.001 μM of drug. Linear regression analysis of percent inhibition versus log inhibitor concentration was used to obtain IC50 values.

[5] = tested on: human ovarian carcinoma xenografts; conditions: batimastat given intraperitoneally; cited from earlier work
human colon tumor = conditions: intraperitoneally; orthotopic model in nude mice; cited from earlier work
[6] = P218 6 μM, pH 6.5, 25 min, 37° C., read-out: MMP-2 Ki
[7] = P218 6 μM, pH 6.5, 25 min, 37° C., read-out: MMP-3 Ki
[8] = P218 6 μM, pH 6.5, 25 min, 37° C., read-out: MMP-9 Ki

T3 sequence (P14780 107-707 limits assumed): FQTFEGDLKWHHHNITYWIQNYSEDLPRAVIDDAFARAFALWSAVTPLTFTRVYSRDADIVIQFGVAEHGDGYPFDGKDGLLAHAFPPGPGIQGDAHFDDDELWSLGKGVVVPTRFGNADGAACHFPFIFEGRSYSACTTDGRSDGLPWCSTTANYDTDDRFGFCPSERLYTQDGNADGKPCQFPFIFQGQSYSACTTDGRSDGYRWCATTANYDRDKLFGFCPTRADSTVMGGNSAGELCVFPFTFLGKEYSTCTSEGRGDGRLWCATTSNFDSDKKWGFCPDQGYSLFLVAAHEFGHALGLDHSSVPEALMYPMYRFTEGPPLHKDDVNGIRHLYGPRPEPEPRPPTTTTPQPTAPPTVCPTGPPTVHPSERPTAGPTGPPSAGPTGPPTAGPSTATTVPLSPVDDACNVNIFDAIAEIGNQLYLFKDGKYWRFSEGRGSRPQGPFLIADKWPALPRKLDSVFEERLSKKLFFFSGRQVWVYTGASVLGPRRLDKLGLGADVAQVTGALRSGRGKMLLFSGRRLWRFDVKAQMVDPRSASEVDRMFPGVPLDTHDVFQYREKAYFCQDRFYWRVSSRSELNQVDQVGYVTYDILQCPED
T2 sequence (P08254 100-477): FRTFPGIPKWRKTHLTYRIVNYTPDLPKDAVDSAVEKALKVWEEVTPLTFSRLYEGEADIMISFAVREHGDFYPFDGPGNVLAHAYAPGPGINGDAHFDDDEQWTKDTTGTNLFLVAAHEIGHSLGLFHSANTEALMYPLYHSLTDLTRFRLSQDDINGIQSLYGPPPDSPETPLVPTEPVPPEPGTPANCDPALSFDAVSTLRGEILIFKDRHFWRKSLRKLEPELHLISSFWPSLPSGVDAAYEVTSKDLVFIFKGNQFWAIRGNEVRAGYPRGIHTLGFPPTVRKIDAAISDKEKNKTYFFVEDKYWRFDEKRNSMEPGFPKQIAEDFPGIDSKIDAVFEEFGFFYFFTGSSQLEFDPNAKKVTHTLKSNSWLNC

O=C(O)CC(C(=O)c1ccc(-c2ccccc2)cc1)c1ccccc1 (centres unmarked) [LXXVII]
activity as anti-inflammatory analgesic agents [1]: inactive

CC(CC(=O)c1ccc(-c2ccccc2)cc1)C(=O)O (centres unmarked) [XLVII]
activity as anti-inflammatory analgesic agents [1]: inactive

O=C(O)CCNC(=O)c1cccc(CCC(CC(=O)c2ccc(-c3ccc(Cl)cc3)cc2)C(=O)O)c1 (stereo not drawn) [Compound XXVI, α-[2-[3-[[(2-carboxyethyl)amino]carbonyl]phenyl]ethyl]-4'-chloro-γ-oxo-[1,1'-biphenyl]-4-butanoic acid]
Ki [2, 6]: 76.6 nM | Ki [3, 7]: 178 nM | Ki [4, 8]: 706 nM

O=C(CC(CCc1ccccc1C(=O)NCCN1CCOCC1)C(=O)O)c1ccc(-c2ccc(Cl)cc2)cc1 (stereo not drawn) [Compound XXV, 4'-chloro-α-[2 [2-[[[2-(4-morpholinyl)ethyl]amino]carbonyl]phenyl]ethyl]-γ-oxo-[1,1'-biphenyl]-4-butanoic acid]
Ki [2, 6]: 51.4 nM | Ki [3, 7]: 371 nM | Ki [4, 8]: 744 nM

O=C(CC(C(=O)O)c1ccccc1)c1ccc(-c2ccccc2)cc1 (centres unmarked) [XLIX]
activity as anti-inflammatory analgesic agents [1]: inactive

CCOC(=O)CCNC(=O)c1ccccc1CCC(CC(=O)c1ccc(-c2ccc(Cl)cc2)cc1)C(=O)O (centres unmarked) [VII]
Ki [2]: 27.1 nM | Ki [3]: 131 nM | Ki [4]: 478 nM

O=C(CC(CCc1ccc(C(=O)N2CCOCC2)cc1)C(=O)O)c1ccc(-c2ccc(Cl)cc2)cc1 (stereo not drawn) [XVII, 4'-chloro-α-[2-[4-(4-morpholinylcarbonyl)phenyl]ethyl]-γ-oxo-[1,1'-biphenyl]-4-butanoic acid]
Ki [2, 6]: 53.6 nM | Ki [3]: 236 nM | Ki [4]: 606 nM

O=C(CC(CCc1ccc(C(=O)NCCN2CCOCC2)cc1)C(=O)O)c1ccc(-c2ccc(Cl)cc2)cc1 (centres unmarked) [XXIX]
Ki [2, 6]: 81.4 nM | Ki ([3]; read-out: MMP-3 Ki, P218 6 μM, pH 6.5, 25 min, 37° C.): 465 nM | Ki ([4]; read-out: MMP-9 Ki, P218 6 μM, pH 6.5, 25 min, 37° C.): 449 nM

O=C(CC(CCc1cccc(C(=O)NCCN2CCOCC2)c1)C(=O)O)c1ccc(-c2ccc(Cl)cc2)cc1 (stereo not drawn) [XXVII, 4'-chloro-α-[2-[3-[[[2-(-morpholinyl)ethyl]amino]carbonyl]phenyl]ethyl]-γ-oxo-[1,1'-biphenyl]-4-butanoic acid]
Ki [2]: 48 nM | Ki [3, 7]: 353 nM | Ki [4, 8]: 786 nM

O=C(CC(CCc1ccccc1C(=O)N1CCOCC1)C(=O)O)c1ccc(-c2ccc(Cl)cc2)cc1 (centres unmarked) [II]
Ki [2, 6]: 12.1 nM | Ki [3]: 122 nM | Ki [4]: 323 nM

O=C(CC(CCc1ccccc1C(=O)N1CCCCC1)C(=O)O)c1ccc(-c2ccc(OCc3ccccc3)cc2)cc1 (centres unmarked) [Compound XXXII]
Ki [2]: 13 nM | Ki [3, 7]: 14.8 nM | Ki [4, 8]: 167 nM

CNC(=O)[C@H](Cc1ccccc1)NC(=O)[C@H](CC(C)C)[C@H](CSc1cccs1)C(=O)NO [batimastat]
survival of mice bearing human ovarian carcinoma xenografts [5]: prolongs the survival | human colon tumor growth and spread (human colon tumor): inhibits human colon tumor growth and spread

O=C(CC(CCc1cccc(C(=O)N2CCCCC2)c1)C(=O)O)c1ccc(-c2ccc(Cl)cc2)cc1 (stereo not drawn) [XI, 4'-chloro-γ-oxo-α-[2-[3-(1-piperidinylcarbonyl)phenyl]ethyl]-[1,1'-biphenyl]-4-butanoic acid]
Ki [2, 6]: 10.3 nM | Ki [3, 7]: 34.4 nM | Ki [4, 8]: 58.1 nM

— patent US5804581A, “Inhibition of matrix metalloproteases by substituted phenalkyl compounds” (Bayer Corporation, priority 1997, dated 1998)
